{"source": "patent US20020155503A1", "about": "(priority 1997, published 2002)", "molecular_target": "protein tyrosine kinase v-Abl (Abelson murine leukemia virus, UniProt P00521)", "sequence (P00521 whole entry)": "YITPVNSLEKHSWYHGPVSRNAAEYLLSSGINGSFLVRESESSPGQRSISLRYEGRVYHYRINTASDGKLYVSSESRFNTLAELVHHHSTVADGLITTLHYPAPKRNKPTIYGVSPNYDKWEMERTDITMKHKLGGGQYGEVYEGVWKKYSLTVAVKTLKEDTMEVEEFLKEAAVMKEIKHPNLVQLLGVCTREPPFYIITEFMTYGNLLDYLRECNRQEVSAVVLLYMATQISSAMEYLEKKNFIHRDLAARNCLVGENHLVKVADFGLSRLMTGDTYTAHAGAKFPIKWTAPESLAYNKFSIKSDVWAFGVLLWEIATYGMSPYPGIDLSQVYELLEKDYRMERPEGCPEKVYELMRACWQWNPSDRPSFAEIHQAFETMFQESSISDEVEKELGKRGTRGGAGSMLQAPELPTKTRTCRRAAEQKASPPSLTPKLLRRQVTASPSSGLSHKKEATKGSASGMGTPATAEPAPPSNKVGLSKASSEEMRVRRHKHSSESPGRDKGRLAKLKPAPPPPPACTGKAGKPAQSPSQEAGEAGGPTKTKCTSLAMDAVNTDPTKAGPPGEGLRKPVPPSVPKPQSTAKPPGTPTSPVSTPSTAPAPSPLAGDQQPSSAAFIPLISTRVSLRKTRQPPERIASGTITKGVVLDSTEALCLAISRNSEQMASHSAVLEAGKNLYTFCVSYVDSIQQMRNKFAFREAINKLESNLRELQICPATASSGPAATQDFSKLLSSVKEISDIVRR", "details": "Library Sub-Set 4 (X-Tyr-X-X-X)", "description": "In the fourth application of this invention, a recombinant form of the Abelson murine leukaemia virus protein tyrosine kinase v-Abl was used in an in vitro phosphorylation reaction to phosphorylate the library sub-set 4 which scans the sequence −1 to +3 around a zero position tyrosine residue, as previously performed for the ZAP-70 library. Detection of phosphoryrosine was achieved using anti-phosphotyrosine antibody detection in an ELISA assay using tetramethylbenzidine substrate and recording absorbance at 450 nm. […] Deconvolution of the hit peptides was performed as described in WO 97/42216.\nLibrary peptides were phosphorylated in pools of 20 peptides at a final concentration of 1 μM total peptide in 50 mM HEPES, pH 7.5, 0.1% Triton X-100, 100 μM ATP, 10 mM MnCl2, 1 mM DTT and 0.2 mM sodium orthovanadate for 30 minutes at 30° C. These reaction mixtures were then stopped using 100 mM EDTA, 6 mM adenosine, transferred to strepavidin-coated microtiter plates and allowed to bind for 30 minutes at 20° C. Unincorporated reaction products were washed from the plate using PBS/0.1% Tween 20 then plate incubation performed with anti-phosphotyrosine antibody (Sigma mouse monoclonal clone PT66) in 2% BSA/PBS/Tween for 1 hour at 20° C. […] HRP detection was then performed with tetramethylbenzidine (TMB) substrate and measuring absorbance at 450 nm using a spectrophotometer (Dynex MRX). […]"}
{"substance": "Serine-tyrosine-phenylalanine-histamine-glutamine", "values": [{"measurement": "substrate deconvoluted from library sub-set", "result": "active site substrate recognition substrate"}]}
